Test results from patent US10694743B2, “Agricultural compositions with reduced aquatic toxicity” (priority 2014, dated 2020).
Entries after “also recorded” stand apart in the source; their conditions may differ.

How the values were obtained:
[1] = system: common lambsquarters (CHEAL); assay: Agricultural field test of glyphosate with adjuvant, visual weed control; type: in vivo, Chenopodium album; conditions: for CHEAL control relative to the control: 8 and 14 DAT; for CHEAL control relative to Roundup Powermax / CHEAL 22 DAT, %: 22 DAT; for CHEAL 14 DAT, % / CHEAL 22 DAT, % / CHEAL 8 DAT, %: visual weed control, glyphosate 480 g.a.e./ha; for CHEAL 14 DAT, % / CHEAL 22 DAT, %: 0-100; for CHEAL 8 DAT, %: 0=no effect to 100=complete kill, 160 g adjuvant per 540 g.a.e.
Experimental: (§1) Amine ethoxylates are evaluated as adjuvants for glyphosate formulations in agricultural field tests performed by an independent laboratory. The weed species included in the evaluation are common lambsquarters (CHEAL), barnyard grass (ECHCG), and wild oat (AVEFA).
(§2) Two field trials are conducted in the Netherlands during the summer. In the first trial, common lambsquarters (CHEAL, Chenopodium album), barnyard grass (ECHCG, Echinochloa crus-galls) and wild oat (AVEFA, Avena fatua) are sown in three distinct zones of the same size in a 4×2 m field plot. Other emerging weed species are removed by hand as needed. Five weeks after sowing, the plots are treated and weed control is visually assessed 8, 14, and 22 days after treatment (DAT). Visual assessment is used with a scale of 0=no effect to 100=complete kill. Growth reduction is included in this assessment. On the day of treatment, ECHCG has more than six leaves, and CHEAL has at least six unfolded leaves. A second test with AVEFA alone is conducted because the level of emergence was too low in the first test. (Results from the first AVEFA testing are not included.) AVEFA is at the 3-leaf stage on the day of treatment. The plots are visually evaluated 9 and 23 days after treatment.
(§3) A glyphosate potassium solution (540 g.a.e./L) without surfactants or other adjuvant chemicals is used to prepare solutions that contain the adjuvants listed in Table 2A. Roundup® Powermax® (540 g.a.e./L, product of Monsanto) is used as a control. The glyphosate solutions are diluted with deionized water such that application at a water volume of 80 L/ha results in a glyphosate application rate of 480 g.a.e./ha. Adjuvants are included in the diluted glyphosate solution at a ratio of 160 g adjuvant per 540 g.a.e. glyphosate. In this way, commercial glyphosate products containing glyphosate at 540 g.a.e./L and adjuvant at 160 g/L are simulated.
(§4) Glyphosate solutions are applied with a backpack sprayer having a TeeJet® TP8003E nozzle set to deliver 80 L/ha at 150 kPa. The application with the first trial started early in the morning in mid-summer. Conditions: sunny skies, relative humidity 80%, temperature 18° C., little or no wind, wet soil, damp foliage. Application of AVEFA trial starts in early autumn late in the afternoon. Conditions: partly cloudy, relative humidity 79%, temperature 15° C., little or no wind, wet soil, dry foliage.

barnyard grass (ECHCG) = assay: as above; type: in vivo, Echinochloa crus-galls; conditions: for ECHCG control relative to Roundup Powermax / ECHCG 22 DAT, %: 22 DAT; for ECHCG 8 DAT, % / ECHCG 14 DAT, % / ECHCG 22 DAT, %: visual weed control, 0-100, glyphosate 480 g.a.e./ha
Experimental: as §1, §2, §3, §4

wild oat (AVEFA) = assay: Agricultural field test of glyphosate with adjuvant, visual weed control (second trial); type: in vivo, Avena fatua; conditions: glyphosate 480 g.a.e./ha; for AVEFA 9 DAT, %: 0-100, 9 DAT; for AVEFA 23 DAT, %: 0-100, 23 DAT
Experimental: as §1, §2, §3, §4

[2] = system: common lambsquarters (CHEAL), barnyard grass (ECHCG), and wild oat (AVEFA); assay: Agricultural field testing, overall performance over the weed species; type: in vivo; conditions: all weed species, glyphosate 480 g.a.e./ha
Experimental: as §1
as §2, with “after treatment. […]” for “after treatment.”

Daphnia magna = assay: Aquatic toxicity screen, Daphnia sp. Acute Immobilization Test (OECD 202 / OPPTS 850.1010); conditions: for 48-Hour EC50: 48-hour exposure, static test conditions
Experimental: The study is performed based on procedures in the OECD Guidelines for Testing of Chemicals, Guideline 202: Daphnia sp., Acute Immobilization Test, and U.S. EPA Guidelines, OPPTS Number 850.1010: Aquatic Invertebrate Acute Toxicity Test. The half maximal effective concentration (EC50) after 48 hours is reported below.

Substance: C11 saturated fatty amine 2EO ethoxylate [Comparative Agent D, reference compound]
- CHEAL control relative to the control [1]: outperform the control
- CHEAL control relative to Roundup Powermax [1]: same performance as Roundup Powermax
- CHEAL 14 DAT, % [1]: 91.3%
- CHEAL 22 DAT, % [1]: 92.5%
- CHEAL 8 DAT, % [1]: 75.0%
- ECHCG control relative to Roundup Powermax (barnyard grass (ECHCG)): outperform Roundup Powermax
- ECHCG 8 DAT, % (barnyard grass (ECHCG)): 97.5%
- ECHCG 14 DAT, % (barnyard grass (ECHCG)): 91.3%
- ECHCG 22 DAT, % (barnyard grass (ECHCG)): 100%
- AVEFA 9 DAT, % (wild oat (AVEFA)): 82.5%
- AVEFA 23 DAT, % (wild oat (AVEFA)): 100%

Substance: C11 unsaturated fatty amine 2EO ethoxylate [Agent B]
- CHEAL control relative to the control [1]: outperform the control
- CHEAL control relative to Roundup Powermax [1]: same performance as Roundup Powermax
- CHEAL 14 DAT, % [1]: 97.7%
- CHEAL 22 DAT, % [1]: 96.7%
- CHEAL 8 DAT, % [1]: 86.7%
- ECHCG control relative to Roundup Powermax (barnyard grass (ECHCG)): outperform Roundup Powermax; also recorded: top performer
- ECHCG 8 DAT, % (barnyard grass (ECHCG)): 100%
- ECHCG 14 DAT, % (barnyard grass (ECHCG)): 97.7%
- ECHCG 22 DAT, % (barnyard grass (ECHCG)): 100%
- AVEFA 9 DAT, % (wild oat (AVEFA)): 87.5%
- AVEFA 23 DAT, % (wild oat (AVEFA)): 100%
- overall field performance as glyphosate adjuvant [2]: best overall performance of the group
- overall field performance as glyphosate adjuvant ([2]; listed as C11 unsaturated 2EO ethoxylate): outperforms its saturated analog

Substance: saturated C11 fatty amine 5EO ethoxylate [Saturated C11 amine 5EO ethoxylate]
- 48-Hour EC50 (Daphnia magna): 3.3 µg/mL
- aquatic toxicity rating (Daphnia magna; in vivo): moderately toxic

Substance: unsaturated C11 fatty amine 5EO ethoxylate [Unsaturated C11 amine 5 EO ethoxylate]
- 48-Hour EC50 (Daphnia magna): 20 µg/mL
